Assay results published in US8999982B2, “Pharmaceutically active compounds as Axl inhibitors” (Lead Discovery Center GmbH, priority 2010, dated 2015).

Columns and labels:
Axl [1] = biological target: T1, Axl (Homo sapiens (Human), UniProt P30530); experiment: Axl binding assay
Method: Binding of the tracer to the kinase is detected using an EU-labeled anti-tag antibody. […] Binding of an inhibitor to the kinase competes for binding with the tracer, resulting in a loss of FRET-signal. At first a compound according to formula (I) was diluted in 20 mM Hepes pH 8.0, 1 mM DTT, 10 mM MgCl2 and 0.01% Brij35.

Axl [2] = biological target: T1, Axl; experiment: Cellular Axl phosphorylation assay; type: cell-based; details: HEK293 cells transfected with Axl cDNA, 1 hour incubation
Outline: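 Transiently Axl-transfected HEK293 cells, with a vector-only negative control, were treated with compound for 1 hour on the day after medium change. Axl phosphorylation was quantified by mesoscale detection.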

T1 sequence (P30530 26-894): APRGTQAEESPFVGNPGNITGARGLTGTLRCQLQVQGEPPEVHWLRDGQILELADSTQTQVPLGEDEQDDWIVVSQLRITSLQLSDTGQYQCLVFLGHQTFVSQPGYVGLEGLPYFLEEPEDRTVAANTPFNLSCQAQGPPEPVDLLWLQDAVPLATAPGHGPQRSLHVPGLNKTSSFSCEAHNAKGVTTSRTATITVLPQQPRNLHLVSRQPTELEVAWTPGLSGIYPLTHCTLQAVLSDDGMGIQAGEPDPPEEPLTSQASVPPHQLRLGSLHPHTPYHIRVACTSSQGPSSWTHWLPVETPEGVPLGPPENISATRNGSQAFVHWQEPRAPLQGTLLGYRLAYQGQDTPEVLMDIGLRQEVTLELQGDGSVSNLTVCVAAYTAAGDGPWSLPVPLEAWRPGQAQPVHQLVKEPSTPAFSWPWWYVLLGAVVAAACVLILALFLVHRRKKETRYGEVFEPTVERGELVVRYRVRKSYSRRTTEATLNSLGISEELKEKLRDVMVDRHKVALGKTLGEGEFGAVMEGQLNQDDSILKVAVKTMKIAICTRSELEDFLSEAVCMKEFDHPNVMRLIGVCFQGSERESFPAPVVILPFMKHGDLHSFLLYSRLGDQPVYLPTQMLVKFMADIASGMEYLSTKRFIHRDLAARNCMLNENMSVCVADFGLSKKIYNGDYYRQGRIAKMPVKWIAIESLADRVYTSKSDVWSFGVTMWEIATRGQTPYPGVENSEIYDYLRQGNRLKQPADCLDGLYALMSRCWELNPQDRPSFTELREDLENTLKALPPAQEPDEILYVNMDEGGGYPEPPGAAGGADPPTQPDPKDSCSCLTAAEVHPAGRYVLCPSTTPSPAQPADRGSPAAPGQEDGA

SMILES | IC50 (Axl [1]) | IC50 (Axl [2])
CCOc1cn(-c2ccc(F)cc2C)nc1C(=O)Nc1ccc(Oc2ccnc3cc(OC)c(OC)cc23)cc1OC [Example 94, N-(4-((6,7-dimethoxyquinolin-4-yl)oxy)-2-methoxyphenyl)-4-ethoxy-1-(4-fluoro-2-methylphenyl)-1H-pyrazole-3-carboxamide] | < 500 nM | < 500 nM
CCOc1cn(-c2ccc(F)cc2C)nc1C(=O)Nc1ccc(Oc2ccnc3cc(OC)c(OC)cc23)cc1C [Example 95, N-(4-((6,7-dimethoxyquinolin-4-yl)oxy)-2-methylphenyl)-4-ethoxy-1-(4-fluoro-2-methylphenyl)-1H-pyrazole-3-carboxamide] | < 500 nM | 500 to 5000 nM
CCOc1cn(-c2ccc(F)c(OC)c2)nc1C(=O)Nc1ccc(Oc2ccnc3cc(OC)c(OC)cc23)c(F)c1 [Example 96, N-(4-((6,7-dimethoxyquinolin-4-yl)oxy)-3-fluorophenyl)-4-ethoxy-1-(4-fluoro-3-methoxyphenyl)-1H-pyrazole-3-carboxamide] | < 500 nM | < 500 nM
CCOc1cn(-c2ccc(F)c(OC)c2)nc1C(=O)Nc1ccc(Oc2ccnc3cc(OC)c(OC)cc23)cn1 [Example 97, N-(5-((6,7-dimethoxyquinolin-4-yl)oxy)pyridin-2-yl)-4-ethoxy-1-(4-fluoro-3-methoxyphenyl)-1H-pyrazole-3-carboxamide] | < 500 nM | < 500 nM
CCOc1cn(-c2ccc([N+](=O)[O-])cc2)nc1C(=O)Nc1ccc(Oc2ccnc3cc(OC)c(OC)cc23)cn1 [Example 98, N-(5-((6,7-dimethoxyquinolin-4-yl)oxy)pyridin-2-yl)-4-ethoxy-1-(4-nitrophenyl)-1H-pyrazole-3-carboxamide] | 500 to 5000 nM | < 500 nM
CCOc1cn(-c2ccc(N)cc2)nc1C(=O)Nc1ccc(Oc2ccnc3cc(OC)c(OC)cc23)cn1 [Example 99, 1-(4-aminophenyl)-N-(5-((6,7-dimethoxyquinolin-4-yl)oxy)pyridin-2-yl)-4-ethoxy-1H-pyrazole-3-carboxamide] | < 500 nM | < 500 nM
COc1cc2c(Oc3ccc(NC(=O)c4nc(-c5ccccc5)cs4)nc3)ccnc2cc1OCC1CCNCC1 [Example 101, N-(5-((6-methoxy-7-(piperidin-4-ylmethoxy)quinolin-4-yl)oxy)pyridin-2-yl)-4-phenylthiazole-2-carboxamide] | < 500 nM | < 500 nM
COc1cc2c(Oc3ccc(NC(=O)c4nc(Br)cs4)nc3)ccnc2cc1OCC1CCNCC1 [Example 102, 4-bromo-N-(5-((6-methoxy-7-(piperidin-4-ylmethoxy)quinolin-4-yl)oxy)pyridin-2-yl)thiazole-2-carboxamide] | < 500 nM | < 500 nM
CCOc1cn(-c2ccc(F)cc2O)nc1C(=O)Nc1ccc(Oc2ccnc3cc(OC)c(OC)cc23)cn1 [Example 104, N-(5-((6,7-dimethoxyquinolin-4-yl)oxy)pyridin-2-yl)-4-ethoxy-1-(4-fluoro-2-hydroxyphenyl)-1H-pyrazole-3-carboxamide] | < 500 nM | < 500 nM
CCOc1cn(-c2cccnc2)nc1C(=O)Nc1ccc(Oc2ccnc3cc(OC)c(OC)cc23)c(F)c1 [Example 105, N-(4-((6,7-dimethoxyquinolin-4-yl)oxy)-3-fluorophenyl)-4-ethoxy-1-(pyridin-3-yl)-1H-pyrazole-3-carboxamide] | < 500 nM | < 500 nM
